Test results published in patent US10111847B2, “Compounds and methods for modulating vascular injury” (The Regents of the University of California, priority 2012, dated 2018).

Tests used:
Format in all cases: cell-based, human
[1] = tested on: TNF-α, IL-1β, MCP-1, IL-6, and IL-1α; experiment: TNF-α-stimulated inflammatory cytokine gene expression in VSMC by qRT-PCR; settings: 0.1 nM or 10 nM, greatest attenuation in IL-1β
Description: (§1) Cells are plated onto 6-well plates at 100% confluency in DMEM plus 10% FBS and allowed to attached overnight. Cells are then made quiescent by placing in serum-free media for 48-72 hours prior to start of experiments. Cells are treated with or without RvD1 or RvD2 at the indicated concentrations for one hour followed by co-incubation with cytokine (TNF-α 10 ng/ml) for up to 18 hours. In a separate set of experiments to examine the role of G-protein receptors, VSMCs are exposed to TNF-α and RvD2 (10 nM) as described above, in the presence or absence of pertussis toxin (PTX 100 ng/ml). Total RNA from rabbit sample or cells is isolated with PureLink RNA Mini kit (Ambion Life Technologies, Carlsbad, Calif.) with RNase-free DNase treatment according to manufacturer's protocol. One microgram of total RNA (from either VSMC or rabbit tissue) is used to generate cDNA using High Capacity cDNA Reverse Transcription Kit (Applied Biosystems, Foster City, Calif.) for subsequent RT-PCR reactions. Sybrgreen Amplified DNA is detected by incorporation SYBR Green (Qiagen, Germantown, Md.). Dissociation curve analyses are performed to confirm the specificity of the SYBR Green signal. Data is normalized to at least two reference genes. […]
(§2) FIG. 2: RvD1 and RvD2 reduce pro-inflammatory gene expression in VSMC. […] Expression of the cell adhesion molecules VCAM-1 (A) and ICAM-1 (B) was measured by qRT-PCR. […]

[2] = tested on: VCAM-1; experiment: TNF-α-stimulated VCAM-1 gene expression in VSMC by qRT-PCR; settings: 100 nM; TNF-α 10 ng/ml 18 hours; P<0.01
Description: as §1, §2

[3] = tested on: IL-1β-stimulated VSMC; experiment: Static monocyte (U937) adhesion assay, IL-1β-stimulated VSMC (RvD); settings: IL-1β 1 nM 4 hours; 0.01-100 nM
Text: (§3) Primary cultures of human greater saphenous vein smooth muscle cells (hVSMC) are isolated from saphenous vein discarded at the time of bypass operation in an Institutional Review Board-approved protocol as described by Conte et al. “Regulation of vein graft hyperplasia by survivin, an inhibitor of apoptosis protein.” Arterioscler Thromb Vasc Biol. 2005; 25:2081-2087. VSMCs are maintained in Dulbecco's modified Eagle's medium (DMEM Low Glucose) (HyClone Laboratories Inc, Logan, Utah) containing 10% fetal bovine serum (FBS) (Invitrogen Life Technologies, Grand Island, N.Y.) and used between passages 2-5. Endothelial cells were maintained in Medium 199 supplemented with EBSS (Hyclone Laboratories, Logan, Utah, USA) and Endothelial Cell Growth Supplement. Cells between passages 3-8 were used for the experiments.
RvD. […] Fluorescence measurements (excitation 494 nm, emission 517 nm) of bound monocytes are made with plate reader (Spectra Max M2, Molecular Devices, LLC, Sunnyvale, Calif.).
FIG. 6: RvD1 and RvD2 modulate cell adhesion response of human VSMC to IL-1β. […] Results are shown as relative percent inhibition, expressed as a percentage of the maximal adhesion for the agonist (n=6, results are mean±SEM, **P<0.01, *P<0.05, unpaired t-test).

[4] = tested on: VSMC; experiment: Transwell migration of VSMC to PDGF-AB; settings: 100 nM; chemotaxis to PDGF-AB 50 ng/mL, 8 hours; P<0.01
Text: as §3
RvD. […]
FIG. 1: RvD1 and RvD2 attenuate cell adhesion, proliferation, and migration responses of human VSMC in-vitro. […] Results are shown as relative percent inhibition, expressed as a percentage of the maximal adhesion for the agonist (n=6, results are mean±SEM, **P<0.01, *P<0.05, unpaired t-test). […] Results are expressed as percentage change in migration from unstimulated control (no PDGF). […]

Compound | expression of multiple inflammatory cytokines including TNF-α, IL-1β, MCP-1, IL-6, and IL-1α [1] | VCAM-1 expression, maximum % reduction [2] [%] | inhibition of monocyte adhesion (U937) to IL-1β-stimulated VSMC [3] | Maximum % reduction in the cell migration assay [4] [%]
CC/C=C\C[C@H](O)/C=C/C=C\C=C\C=C\[C@@H](O)[C@@H](O)C/C=C\CCC(=O)O [RvD1, Resolvin D1] | broad, significant reduction | 69 | dose-dependent inhibition | 63
CC/C=C\C[C@H](O)[C@H](O)/C=C/C=C/C=C\C=C\[C@@H](O)C/C=C\CCC(=O)O [RvD2, resolvin D2] | broad, significant reduction | 76 | dose-dependent inhibition | 69
